Results on five compounds are retold here after ChEMBL document CHEMBL1127108, “Synthesis of ecdysteroid inhibitors of ecdysone biosynthesis. Inhibition of the C-25 hydroxylation” (1993).

Each structure is given as a SMILES string.

The test system of test [1] is Locusta migratoria. The test can be described thus: In vitro inhibitory activity of compound on ecdysone biosynthesis in larval prothoracic glands of Locusta migratoria at 10e-5 M concentration. It counts as functional.
The test system of test [2] is Locusta migratoria. The test can be described thus: In vitro inhibitory activity of compound on ecdysone biosynthesis in larval prothoracic glands of Locusta migratoria; NI: No inhibition was observed. The class given is functional.

`C#C[C@H](O)C(C)C1CCC2C3CC=C4C[C@@H](O)CC[C@]4(C)C3CC[C@@]21C` (stereo not given in full): 10 µM produced 36% inhibition in the test on Locusta migratoria [1].

For `C#CC[C@@H](O)C(C)C1CCC2C3CC=C4C[C@@H](O)CC[C@]4(C)C3CC[C@@]21C` (stereo not given in full), the inhibition (usually the drop in the measured response relative to a control, in per cent) at 10 µM with Locusta migratoria [1] is 66%.

Take `CC(C1CCC2C3CC=C4C[C@@H](O)CC[C@]4(C)C3CC[C@@]21C)[C@@H](O)C#C[Si](C)(C)C` (stereo not given in full): the inhibition entry in the test with Locusta migratoria [2] was “No inhibition”.

For `C#CC[C@@H](O)C(C)C1CC[C@H]2[C@@H]3CC=C4C[C@@H](O)CC[C@]4(C)[C@H]3CC[C@]12C` (stereo not given in full), in the test on Locusta migratoria [1], testing at 10 µM gave an inhibition of 36%.

Compound `C#CC[C@H](O)C(C)C1CC[C@H]2[C@@H]3CC=C4C[C@@H](O)CC[C@]4(C)[C@H]3CC[C@]12C` (stereo not given in full) showed an inhibition at 10 µM in the test on Locusta migratoria [1] of 37%.
